According to patent publication US20100221228A1, “y134.5 Deficient HSV and the MAPK Pathway” (The University of Chicago, priority 2006, published 2010):

How the values were obtained:
[1] = tested on: HT1080 cells infected with R3616; experiment: MEK inhibitor study: immunoblotting of viral proteins and phospho-PKR; format: cell-based, human
Description: (§1) Inhibitor studies—For experiments employing the known MEK inhibitor, PD98059, HT1080 cells were starved over night in serum-free medium and then exposed to 40 μM of PD98059 (EMD Biosciences, San Diego, Calif.), or DMSO (1:1000 dilution) 6 hours prior to, and during, infection. At 12 hours post-infection, whole cell lysates were created as described above for immunoblotting.
To determine if MEK mediates the observed mutant Ras-dependent suppression of PKR activation and resultant accumulation of viral proteins in HT1080 cells infected with mutant virus R3616, the relative expressions of representative a (ICP27), β (U142) and γ2 (glycoprotein C) viral proteins in cells treated with a specific chemical inhibitor of MEK-1 (PD98059) were compared. Replicate cultures of HT1080 cells were serum-starved overnight prior to exposure to equal volumes of DMSO or PD98059 (40 μM) for 6 hours prior to infection with R3616 mutant virus (10 PFU/cell). DMSO or drug treatment was then continued until the cells were harvested at 12 hours post-infection. The cells were then lysed and the lysates were subjected to electrophoresis in denaturing polyacrylamide gels, followed by transferring to PVDF membranes and reacting with antibody to ICP27, UL42, or gC. […] To test whether the decrease in the accumulation of gC correlated with activation of PKR, the electrophoretically separated lysates were also probed with antibody to the auto-phosphorylated form of PKR (P-Thr446). The presence of PD98059 prior to, and during, infection with R3616 […] the amount of activated PKR in HT1080 cells (FIG. 6, panel B).

[2] = tested on: HT1080 cells infected with R3616; experiment: MEK inhibitor study: R3616 yield in HT1080 cells with PD98059 or DMSO; format: cell-based, human
Description: as §1
Finally, to determine if MEK inhibition affects viral replication, DMSO or PD98059 (40 μM) was added to replicate cultures of HT1080 cells 6 hours prior to, and during, infection with R3616 (1 PFU/cell).

[3] = PD98059 40 μM, R3616 10 PFU/cell, 12 hours post-infection

SMILES: COc1cccc(-c2cc(=O)c3ccccc3o2)c1N [PD98059]
- amount of activated PKR (P-Thr446) ([1]; PD98059 40 μM prior to and during infection with R3616): increased
- accumulation of ICP27 and UL42 proteins [1, 3]: slight effect
- amounts of gC that accumulated [1, 3]: very dramatic decrease
- yield of R3616 lower than in the presence of DMSO ([2]; PD98059 40 μM): approximately 15 fold
- yield of R3616 mutant virus ([2]; in the presence of PD98059 40 μM, 6 hours prior to and during infection, 1 PFU/cell, 36 hours): 1.67×10^5 PFU/ml
